molecular target: T1, human capsaicin receptor (Homo sapiens, UniProt Q8NER1); test: Calcium mobilization assay, determination of antagonist activity (Example 6); assay type: cell-based; settings: Table II; IC50 determined as described in Example 6 (antagonist activity, calcium mobilization)
T1 construct: pBK-CMV expression construct encoding the full length human capsaicin receptor; expressed in transfected cells
In short: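 Antagonism measured as inhibition of capsaicin-evoked (final concentration = EC50, from an 8-point 1 nM–3 μM curve) Fluo-3 calcium signal in stable hVR1-HEK293 cells. Test compounds at 1–5 μM final, 0.5–6 h dark preincubation at room temperature. IC50 = concentration giving 50% reduction versus agonist-only response.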

T1 sequence (Q8NER1 whole entry): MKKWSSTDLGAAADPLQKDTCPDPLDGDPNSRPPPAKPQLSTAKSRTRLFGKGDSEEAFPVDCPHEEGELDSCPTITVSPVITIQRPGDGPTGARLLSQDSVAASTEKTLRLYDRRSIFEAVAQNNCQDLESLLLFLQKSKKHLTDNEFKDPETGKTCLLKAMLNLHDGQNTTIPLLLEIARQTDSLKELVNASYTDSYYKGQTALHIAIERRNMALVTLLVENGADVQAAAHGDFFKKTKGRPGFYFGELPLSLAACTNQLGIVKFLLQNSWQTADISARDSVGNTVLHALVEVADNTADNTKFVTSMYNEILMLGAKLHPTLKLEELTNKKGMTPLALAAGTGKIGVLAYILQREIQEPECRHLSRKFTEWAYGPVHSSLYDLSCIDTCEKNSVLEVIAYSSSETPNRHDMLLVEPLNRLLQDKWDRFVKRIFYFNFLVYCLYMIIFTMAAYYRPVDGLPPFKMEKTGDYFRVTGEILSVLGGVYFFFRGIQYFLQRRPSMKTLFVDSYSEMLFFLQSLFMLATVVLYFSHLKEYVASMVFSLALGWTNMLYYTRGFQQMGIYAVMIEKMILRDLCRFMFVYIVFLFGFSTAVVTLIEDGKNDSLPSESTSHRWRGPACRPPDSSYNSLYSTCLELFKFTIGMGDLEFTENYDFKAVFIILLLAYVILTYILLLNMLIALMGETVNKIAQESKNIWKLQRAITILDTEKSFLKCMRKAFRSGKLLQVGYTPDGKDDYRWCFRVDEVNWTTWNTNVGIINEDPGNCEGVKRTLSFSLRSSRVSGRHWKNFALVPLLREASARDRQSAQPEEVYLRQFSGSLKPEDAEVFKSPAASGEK

Row | Compound | IC50 [µM]
1 | CC1CCCN1c1nc(-c2ccc(F)c(Cl)c2)cc(N2CCN(c3ncncc3Cl)CC2)n1 (stereo not drawn) [Example 1010, 4-(3-chloro-4-fluorophenyl)-6-[4-(5-chloropyrimidin-4-yl)piperazin-1-yl]-2-(2-methylpyrrolidin-1-yl)pyrimidine] | ≤ 1
2 | CC1CCCN1c1nc(-c2ccc(F)cc2)cc(N2CCN(c3nc(Cl)ccc3Cl)C[C@H]2C)n1 (stereo partly drawn) [Example 1011, 4-[4-(3,6-dichloropyridin-2-yl)-2-methylpiperazin-1-yl]-6-(4-fluorophenyi)-2-(2-methylpyrrolidin-1-yl)pyrimidine] | ≤ 1
3 | CNc1ccc(Cl)c(N2CCN(c3cc(-c4ccc(F)cc4)nc(N4CCCC4C)n3)[C@H](C)C2)n1 (stereo partly drawn) [Example 1012, 5-chloro-6-{4-[6-(4-fiuorophenyl)-2-(2-methylpyrrolidin-1-yl)pyrimidin-4-yl]-3-methylpiperazin-1-yl}-N-methylpyridin-2-amine] | ≤ 1
4 | CC1CCCN1c1nc(-c2ccc(F)cc2)cc(N2CCN(c3ncncc3Cl)C[C@H]2C)n1 (stereo partly drawn) [Example 1013, 4-[(2R)-4-(5-chloropyrimidin-4-yl)-2-methylpiperazin-1-yl]-6-(4-fluorophenyl)-2-(2-methylpyrrolidin-1-yl)pyrimidine] | ≤ 1
5 | Cc1cccnc1N1CCN(c2cc(-c3ccc(F)c(Cl)c3)nc(N(C)[C@@H](C)CO)n2)CC1 [Example 1016, (2S)-2-[{4-(3-chloro-4-fluorophenyl)-6-[4-(3-methylpyridin-2-yl)piperazin-1-yl]pyrimidin-2-yl}(methyl)amino]propan-1-ol] | ≤ 1

More lines, now with the values ahead:

Row | IC50 [µM] | Compound
6 | ≤ 1 | C[C@@H]1CN(c2ncccc2F)CCN1c1cc(-c2ccc(F)c(Cl)c2)nc(N2CCOC[C@@H]2C)n1 [Example 1004, (3S)-4-{4-(3-chloro-4-fluorophenyl)-6-[(2R)-4-(3-fluoropyridin-2-yl)-2-methylpiperaztn-1-yl]pyrimidin-2-yl}-3-methylmorpholine]
7 | ≤ 1 | C[C@H]1CN(c2ncccc2Cl)CCN1c1cc(-c2ccc(F)c(Cl)c2)nc(N2CCOC[C@@H]2C)n1 [Example 1005, (3S)-4-{4-(3-chloro-4-fluorophenyl)-6-[(2S)-4-(3-chloropyridin-2-yl)-2-methylpiperazin-1-yl]pyrimidin-2-yl}-3-methylmorpholine]
8 | ≤ 1 | C[C@@H]1CN(c2ncccc2F)CCN1c1cc(-c2ccc(F)c(F)c2)nc(N2CCOC[C@@H]2C)n1 [Example 1006, (3S)-4-{4-(3,4-difluorophenyl)-6-[(2R)-4-(3-fluoropyridin-2-yl)-2-methylpiperazin-1-yl]pyrimidin-2-yl}-3-methylmorpholine]
9 | ≤ 1 | CC1CCCN1c1nc(-c2ccc(F)c(Cl)c2)cc(N2CCN(c3ncc(C#N)cn3)CC2)n1 (stereo not drawn) [Example 1009, 2-{4-[6-(3-chloro-4-fluorophenyl)-2-(2-methylpyrrolidin-1-yl)pyrimidin-4-yl]piperazin-1-yl}pyrimidine-5-carbonitrile]

From patent publication US7566712B2, “Biaryl piperazinyl-pyridine analogues” (Neurogen Corporation, priority 2003, dated 2009)
